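96-well plates; 48 h exposure; 5 concentrations. Endpoints by linear interpolation between flanking doses. Not reached: highest tested concentration assigned. Abbreviation: GI50, concentration required for 50% inhibition of growth. TGI marks complete inhibition of growth.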
How the values were obtained:
Experiment in all cases: NCI anticancer screen, dose series, 48 h
A498 renal = tested on: A498 renal
CCRF-CEM leukemia = tested on: CCRF-CEM leukemia
EKVX NSCLC = tested on: EKVX NSCLC
HCT-15 colon = tested on: HCT-15 colon
KM12 colon = tested on: KM12 colon
NCI-H23 lung = tested on: NCI-H23 lung
OVCAR-4 ovarian = tested on: OVCAR-4 ovarian
SK-MEL-2 melanoma = tested on: SK-MEL-2 melanoma
SN12C renal = tested on: SN12C renal
U251 CNS = tested on: U251 CNS

| SMILES | GI50 (A498 renal) [µM] | TGI (A498 renal) [µM] | GI50 (CCRF-CEM leukemia) [µM] | TGI (CCRF-CEM leukemia) [µM] | GI50 (EKVX NSCLC) [µM] | TGI (EKVX NSCLC) [µM] | GI50 (HCT-15 colon) [µM] | TGI (HCT-15 colon) [µM] | GI50 (KM12 colon) [µM] | TGI (KM12 colon) [µM] | GI50 (NCI-H23 lung) [µM] | TGI (NCI-H23 lung) [µM] | GI50 (OVCAR-4 ovarian) [µM] | TGI (OVCAR-4 ovarian) [µM] | GI50 (SK-MEL-2 melanoma) [µM] | TGI (SK-MEL-2 melanoma) [µM] | GI50 (SN12C renal) [µM] | TGI (SN12C renal) [µM] | GI50 (U251 CNS) [µM] | TGI (U251 CNS) [µM] |
| --- | --- | --- | --- | --- | --- | --- | --- | --- | --- | --- | --- | --- | --- | --- | --- | --- | --- | --- | --- | --- |
| O=P(O)(O)OCC1OC(n2cnc3c(NCc4ccccc4)ncnc32)C(O)C1O (stereo not given) | 2.05 | 7.44 | 3.76 | > 100 | 2.97 | 80.1 | 1.19 | 16 | 12.7 | > 100 | 1.97 | 31.4 | 0.642 | 33.1 | > 23.8 | > 84.4 | 0.509 | > 100 | 5.21 | > 100 |
| CC(C)c1ccc(NC(=O)Cc2ccc(Nc3ncnc4cc(-c5cnn(CCN(C)C)c5)ccc34)cc2)cc1 | 0.128 | > 10 | 0.0522 | 4.68 | 2.42 | 9.23 | 1.55 | 4.08 | 0.0641 | 1.39 | 4.14 | > 10 | 1.51 | 3.05 | > 10 | > 10 | 1.34 | 3.05 | 1.7 | 4.5 |
| CCn1c(-c2nonc2N)nc2c(N3CCCC3)nccc21 | 8.39 | > 25 | 18.4 | > 25 | > 25 | > 25 | 11.2 | > 25 | 15.7 | > 25 | 14.9 | > 25 | 10.3 | > 25 | > 25 | > 25 | 15 | > 25 | 9.43 | > 25 |
| COc1ccc(-c2cc(=O)c3c(O)c(OC)c(OC)c(OC)c3o2)cc1 |  | > 27.6 |  | > 100 |  | > 100 |  | > 100 |  | 44.4 |  | > 74.7 |  | > 100 |  | > 81.3 |  | > 100 |  | > 100 |
| Nc1c2ccccc2nc2c(C(=O)Nc3ccc(S(N)(=O)=O)cc3)cccc12 |  | > 100 |  | > 100 |  | > 100 |  | > 100 |  | > 100 |  | > 100 |  | > 100 |  | > 100 |  | > 100 |  | > 100 |
| CC(SCc1ccccc1)C(=O)O (stereo not given) |  | > 100 |  | > 100 |  | > 100 |  | > 100 |  | > 100 |  | > 100 |  | > 100 |  | > 100 |  | > 100 |  | > 100 |
| COC(=O)C1CCc2nnc(-c3ccccc3)n21 (stereo not given) |  | > 100 |  | > 100 |  | > 100 |  | > 100 |  | > 100 |  | > 100 |  | > 100 |  | > 100 |  | > 100 |  | > 100 |
| NC(Cc1ccccc1)c1nccs1 (stereo not given) |  | > 100 |  | > 100 |  | > 100 |  | > 100 |  | > 100 |  | > 100 |  | > 100 |  | > 100 |  | > 100 |  | > 100 |
| CC[C@H](C)[C@H](NC(=O)c1cccn1C)C(=O)N(C)[C@H](C[C@@H](OC(C)=O)c1nc(C(=O)N[C@@H](Cc2ccccc2)C[C@H](C)C(=O)OC)cs1)C(C)C | 0.0722 | 7.06 | 0.138 | > 33.3 | 0.543 | > 33.3 | 0.337 | > 33.3 | 0.106 | > 33.3 | 0.216 | > 33.3 | 0.68 | > 33.3 | 0.347 | > 33.3 | 0.351 | > 33.3 | 0.24 | > 33.3 |
| C=C1C(=O)O[C@H]2C[C@@H]1C(=O)CC(C)CCCC(C)=CCC[C@@]2(C)O (stereo not given in full) |  | > 25 |  | > 25 |  | > 25 |  | > 25 |  | > 25 |  | > 25 |  | > 25 |  | > 25 |  | > 25 |  | > 25 |
| CC1=NOC(=O)/C1=C/c1ccc2c(c1)OCO2 |  | 62.3 |  | 67.5 |  | > 100 |  | 45.3 |  | 36.6 |  | > 100 |  | > 100 |  | 39 |  | 59.4 |  | 38 |
| CC(=O)[O-].N.N.N.N.[Co+3].[O-][Cl+3]([O-])([O-])[O-].[OH3+] | > 100 | > 100 | > 100 | > 100 | > 100 | > 100 | > 100 | > 100 | > 100 | > 100 | > 100 | > 100 | > 100 | > 100 | > 100 | > 100 | > 100 | > 100 | > 100 | > 100 |
| CS(=O)(=O)N(c1cc(-c2ccc3ncnc(Nc4ccc(F)c(Cl)c4)c3c2)cnc1Cl)S(C)(=O)=O | 0.342 | 1.56 | 0.527 | > 100 | 0.649 | 5.19 | 0.945 | 13.9 | 2.43 | 9.81 | 0.861 | 5.15 | 2.33 | 19.4 | 1.16 | 4.01 | 0.964 | > 32.6 | 1.15 | 13.4 |
| Cc1cc(O)c(-c2ccc([C@@H](C)CN(C)C)cc2)c2c1[nH]c(=O)c1sccc12 | 0.265 | 0.929 | 1.77 | > 41.9 | 0.585 | 6.23 | 1.42 | 31.3 | 0.482 | 6.71 | 1.06 | 6.41 | 0.769 | 10.6 | 0.679 | 3.04 | 0.627 | 20.7 | 0.399 | 17.4 |
| O=C(O)c1ccc(SSc2ccc(C(=O)O)cn2)nc1 |  | > 100 |  | > 100 |  | > 100 |  | > 100 |  | > 100 |  | > 100 |  | > 100 |  | > 100 |  | > 100 |  | > 100 |
| C[CH2][Sn]([CH2]C)([O]C(=O)c1ccc(F)cc1)[O]C(=O)c1ccc(F)cc1 | 16.8 | 36.3 | 8.75 | 31.4 | > 100 | > 100 | 25.7 | > 63 | > 100 | > 100 | 17.3 | 32.8 | 52.4 | > 100 | 12.8 | 17.5 | 36 | > 100 | 19 | 42 |

Source: PubChem BioAssay (NCI)
